Measurements published in patent US11780839B2, “Compounds for treating Huntington's disease” (PTC THERAPEUTICS, INC., priority 2018, dated 2023).

System: Endogenous Huntingtin Protein
Assay: Endogenous Huntingtin Protein Assay (ELISA-based Meso Scale Discovery electrochemiluminescence)
Type: cell-based
Conditions: MSD electrochemiluminescence, Table 1
Procedure: Compounds of Formula (I) or Formula (II) were tested using the Meso Scale Discovery (MSD) Assay provided in International Application No. PCT/US2016/066042, filed on Dec. 11, 2016 and claiming priority to U.S. Provisional Application 62/265,652 filed on Dec. 10, 2015, the entire contents of which are incorporated herein by reference.
The Endogenous Huntingtin Protein assay used in Example 1 was developed using the ELISA-based MSD electrochemiluminescence assay platform.
Endogenous Huntingtin Protein Assay
Meso Scale Discovery (MSD) 96-well or 384-well plates were coated overnight at 4° C. with MW1 (expanded polyglutamine) or MAB2166 monoclonal antibody (for capture) at a concentration of 1 μg/mL in PBS (30 μL per well). Plates were then washed three times with 300 μL wash buffer (0.05% Tween-20 in PBS) and blocked (100 μL blocking buffer; 5% BSA in PBS) for 4-5 hours at room temperature with rotational shaking and then washed three times with wash buffer.
Samples (25 μL) were transferred to the antibody-coated MSD plate and incubated overnight at 4° C. After removal of the lysates, the plate was washed three times with wash buffer, and 25 μL of #5656S (Cell signaling; rabbit monoclonal) secondary antibody (diluted to 0.25 μg/mL in 0.05% Tween-20 in blocking buffer) was added to each well and incubated with shaking for 1 Hour at room temperature. Following incubation with the secondary antibody, the wells were rinsed with wash buffer after which 25 μL of goat anti-rabbit SULFO TAG secondary detection antibody (required aspect of the MSD system) (diluted to 0.25 μg/mL in 0.05% Tween-20 in blocking buffer) was added to each well and incubated with shaking for 1 hour at room temperature. After rinsing three times with wash buffer, 150 μL of read buffer T with surfactant (MSD) were added to each empty well, and the plate was imaged on a SI 6000 imager (MSD) according to manufacturers' instructions provided for 96- or 384-well plates.

Row | Structure (SMILES) | IC50
1 | Cc1csc(-c2ccc(-c3cnc(N(C)C4CC(C)(C)NC(C)(C)C4)nn3)c(O)c2)c1 [Cpd 54, 2-{3-[methyl(2,2,6,6-tetramethylpiperidin-4-yl)amino]-1,2,4-triazin-6-yl}-5-(4-methylthiophen-2-yl)phenol] | > 500 nM
2 | COc1cnn(-c2ccc(-c3cnc(N(C)C4CC(C)(C)NC(C)(C)C4)nn3)c(O)c2)c1 [Cpd 55, 5-(4-methoxy-1H-pyrazol-1-yl)-2-{3-[methyl(2,2,6,6-tetramethylpiperidin-4-yl)amino]-1,2,4-triazin-6-yl}phenol] | ≤ 100 nM
3 | CN(c1ncc(-c2ccc(-c3ccn(C)c(=O)c3)cc2O)nn1)C1CC(C)(C)NC(C)(C)C1 [Cpd 56] | ≤ 100 nM
4 | CN(c1ncc(-c2ccc(-c3c[nH]nc3Cl)cc2O)nn1)C1CC(C)(C)NC(C)(C)C1 [Cpd 57, 5-(3-chloro-1H-pyrazol-4-yl)-2-{3-[methyl(2,2,6,6-tetramethylpiperidin-4-yl)amino]-1,2,4-triazin-6-yl}phenol] | ≤ 100 nM
5 | CN(c1ncc(-c2ccc(-c3nccs3)cc2O)nn1)C1CC(C)(C)NC(C)(C)C1 [Cpd 58, 2-{3-[methyl(2,2,6,6-tetramethylpiperidin-4-yl)amino]-1,2,4-triazin-6-yl}-5-(1,3-thiazol-2-yl)phenol] | ≤ 100 nM
6 | CN(c1ncc(-c2ccc(-n3cnc(Cl)c3)cc2O)nn1)C1CC(C)(C)NC(C)(C)C1 [Cpd 59, 5-(4-chloro-1H-imidazol-1-yl)-2-{3-[methyl(2,2,6,6-tetramethylpiperidin-4-yl)amino]-1,2,4-triazin-6-yl}phenol] | ≤ 100 nM
7 | CN(c1ncc(-c2ccc(-c3ccnnc3)cc2O)nn1)C1CC(C)(C)NC(C)(C)C1 [Cpd 60, 2-{3-[methyl(2,2,6,6-tetramethylpiperidin-4-yl)amino]-1,2,4-triazin-6-yl}-5-(pyridazin-4-yl)phenol] | ≤ 100 nM
8 | Cc1cc(-c2ccc(-c3cnc(N(C)C4CC(C)(C)NC(C)(C)C4)nn3)c(O)c2)cnn1 [Cpd 61, 5-(6-methylpyridazin-4-yl)-2-{3-[methyl(2,2,6,6-tetramethylpiperidin-4-yl)amino]-1,2,4-triazin-6-yl}phenol] | ≤ 100 nM
9 | CN(c1ncc(-c2ccc(-c3ncn(C)n3)cc2O)nn1)C1CC(C)(C)NC(C)(C)C1 [Cpd 62, 2-{3-[methyl(2,2,6,6-tetramethylpiperidin-4-yl)amino]-1,2,4-triazin-6-yl}-5-(1-methyl-1H-1,2,4-triazol-3-yl)phenol] | 100 to 500 nM
10 | CN(c1ncc(-c2ccc(-n3nccn3)cc2O)nn1)C1CC(C)(C)NC(C)(C)C1 [Cpd 63, 2-{3-[methyl(2,2,6,6-tetramethylpiperidin-4-yl)amino]-1,2,4-triazin-6-yl}-5-(2H-1,2,3-triazol-2-yl)phenol] | ≤ 100 nM
11 | Cc1ncc(-c2ccc(-c3cnc(N(C)C4CC(C)(C)NC(C)(C)C4)nn3)c(O)c2)s1 [Cpd 64, 2-{3-[methyl(2,2,6,6-tetramethylpiperidin-4-yl)amino]-1,2,4-triazin-6-yl}-5-(2-methyl-1,3-thiazol-5-yl)phenol] | ≤ 100 nM
12 | CN(c1ncc(-c2ccc(-c3ncns3)cc2O)nn1)C1CC(C)(C)NC(C)(C)C1 [Cpd 65, 2-{3-[methyl(2,2,6,6-tetramethylpiperidin-4-yl)amino]-1,2,4-triazin-6-yl}-5-(1,2,4-thiadiazol-5-yl)phenol] | ≤ 100 nM
13 | Cc1nsc(-c2ccc(-c3cnc(N(C)C4CC(C)(C)NC(C)(C)C4)nn3)c(O)c2)n1 [Cpd 66, 2-{3-[methyl(2,2,6,6-tetramethylpiperidin-4-yl)amino]-1,2,4-triazin-6-yl}-5-(3-methyl-1,2,4-thiadiazol-5-yl)phenol] | ≤ 100 nM
14 | CN(c1ncc(-c2ccc(-c3cn[nH]c3)cc2O)nn1)C1CC(C)(C)NC(C)(C)C1F (centres unmarked) [Cpd 67, 2-{3-[(3-fluoro-2,2,6,6-tetramethylpiperidin-4-yl)(methyl)amino]-1,2,4-triazin-6-yl}-5-(1H-pyrazol-4-yl)phenol] | 100 to 500 nM
